Source: patent US12084434B2 (Scorpion Therapeutics, Inc., priority 2021, dated 2024)

What follows are compounds tested on T47D pAKT (S473), PI3Kα H1047R mutation present (assay: HTRF pAKT-T47D). Settings: Homo sapiens, T47D, 1 h, read-out: T47D pAKT IC50 (nM), T47D.1 cells, pAKT (S473) HTRF, 1 hour.
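Further: assay medium was RPMI with 10% FBS and 0.2 units/ml bovine insulin, without phenol red.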

IC50	Compound
< 1000 nM	Cc1c([C@@H](NC(=O)Nc2cnc(N3C[C@H](O)[C@H]3C)nc2)C(C)C)oc2ccc(F)cc12 (relative stereo) [Compound 149, 3-[(1S)-1-(5-fluoro-3-methyl-1-benzofuran-2-yl)-2-methylpropyl]-1-{2-[(2R*,3R**)-3-hydroxy-2-methylazetidin-1-yl]pyrimidin-5-yl}urea]
< 1000 nM	Cc1c([C@@H](NC(=O)Nc2cnc(N3C[C@H](O)[C@H]3C)nc2)C(F)(F)F)oc2ccc(F)cc12 [Compound 169]
< 1000 nM	Cc1c([C@@H](NC(=O)Nc2cnc(N3CC(C)(O)C3)nc2)C(C)C)oc2ccc(F)cc12 [Compound 96, (S)-1-(1-(5-fluoro-3-methylbenzofuran-2-yl)-2-methylpropyl)-3-(2-(3-hydroxy-3-methylazetidin-1-yl)pyrimidin-5-yl)urea]
< 1000 nM	Cc1c([C@@H](NC(=O)Nc2cnc(OCCO)nc2)C(C)C)oc2ccc(F)cc12 [Compound 151, (S)-1-(1-(5-fluoro-3-methylbenzofuran-2-yl)-2-methylpropyl)-3-(2-(2-hydroxyethoxy)pyrimidin-5-yl)urea]
< 1000 nM	CNC(=O)C1CN(c2ncc(NC(=O)N[C@H](c3oc4ccc(F)cc4c3C)C(C)C)cn2)C1 [Compound 163, 1-[5-({[(1S)-1-(5-fluoro-3-methyl-1-benzofuran-2-yl)-2-methylpropyl]carbamoyl}amino)pyrimidin-2-yl]-N-methylazetidine-3-carboxamide]
< 1000 nM	CC[C@H](NC(=O)Nc1cnc(N)nc1)c1oc2ccc(F)cc2c1C (single isomer, unassigned) [Compound 100]
1000 to 5000 nM	Cc1c(C(NC(=O)Nc2ccc(N)cc2)C(F)(F)F)oc2c(F)cc(F)cc12 (single isomer, unassigned) [Compound 221, 1-(4-aminophenyl)-3-(1-(5,7-difluoro-3-methylbenzofuran-2-yl)-2,2,2-trifluoroethyl)urea]
1000 to 5000 nM	Cc1c(C(NC(=O)Nc2cnc(N3CCC(O)CC3)nc2)C(F)(F)F)oc2c(F)cc(F)cc12 (single isomer, unassigned) [Compound 191]
1000 to 5000 nM	Cc1c([C@@H](NC(=O)Nc2cnc(C(=O)N(C)C)s2)C(C)C)oc2ccc(F)cc12 [Compound 121, (S)-5-(3-(1-(5-fluoro-3-methylbenzofuran-2-yl)-2-methylpropyl)ureido)-N,N-dimethylthiazole-2-carboxamide]
< 1000 nM	Cc1c([C@@H](NC(=O)Nc2ncc(N)cn2)C(C)(C)C)oc2ccc(F)cc12 [Compound 86, (S)-1-(5-aminopyrimidin-2-yl)-3-(1-(5-fluoro-3-methylbenzofuran-2-yl)-2,2-dimethylpropyl)urea]
1000 to 5000 nM	Cc1c([C@@H](NC(=O)Nc2cccc(N3CCC3=O)c2)C(C)C)oc2ccc(F)cc12 [Compound 105]
1000 to 5000 nM	Cc1c(C(NC(=O)Nc2cnc(N)nc2)C(F)(F)F)oc2c(Br)cc(F)cc12 (single isomer, unassigned) [Compound 215, 1-(2-aminopyrimidin-5-yl)-3-[1-(7-bromo-5-fluoro-3-methyl-1-benzofuran-2-yl)-2,2,2-trifluoroethyl]urea]
< 1000 nM	Cc1c([C@@H](NC(=O)Nc2cnc(N3CC(OC(F)F)C3)nc2)C(C)C)oc2ccc(F)cc12 [Compound 167, 1-{2-[3-(difluoromethoxy)azetidin-1-yl]pyrimidin-5-yl}-3-[(1S)-1-(5-fluoro-3-methyl-1-benzofuran-2-yl)-2-methylpropyl]urea]
1000 to 5000 nM	Cc1c([C@H](C)NC(=O)Nc2cnc(N)nc2)oc2ccc(F)cc12 [Compound 101, (S)-1-(2-aminopyrimidin-5-yl)-3-(1-(5-fluoro-3-methylbenzofuran-2-yl)ethyl)urea]
< 1000 nM	Cc1c(C(NC(=O)Nc2cnc(N3CCC3)nc2)C(F)(F)F)oc2c(F)cc(F)cc12 (single isomer, unassigned) [Compound 223, 1-(2-(azetidin-1-yl)pyrimidin-5-yl)-3-(1-(5,7-difluoro-3-methylbenzofuran-2-yl)-2,2,2-trifluoroethyl)urea]
< 1000 nM	Cc1c([C@@H](NC(=O)Nc2cnc(N3CC[C@H](O)C3)nc2)C(F)(F)F)oc2c(F)cc(F)cc12 [Compound 209]
1000 to 5000 nM	Cc1c(C(NC(=O)Nc2cnc(N)nc2)C(F)(F)F)oc2c(C#N)cc(F)cc12 (single isomer, unassigned) [Compound 219, 1-(2-aminopyrimidin-5-yl)-3-[1-(7-cyano-5-fluoro-3-methyl-1-benzofuran-2-yl)-2,2,2-trifluoroethyl]urea]
< 1000 nM	Cc1c([C@@H](NC(=O)Nc2cnc(NC[C@@H](C)O)nc2)C(C)C)oc2ccc(F)cc12 [Compound 143]
< 1000 nM	Cc1c([C@@H](NC(=O)Nc2cnc(NCC(C)(C)O)nc2)C(C)C)oc2ccc(F)cc12 [Compound 142]
< 1000 nM	Cc1c([C@@H](NC(=O)Nc2cnc(N3CC(F)C3)nc2)C(F)(F)F)oc2ccc(F)cc12 [Compound 95, (R)-1-(2-(3-fluoroazetidin-1-yl)pyrimidin-5-yl)-3-(2,2,2-trifluoro-1-(5-fluoro-3-methylbenzofuran-2-yl)ethyl)urea]
< 1000 nM	Cc1c([C@@H](NC(=O)Nc2cnc(N3CC4(CCO4)C3)nc2)C(C)C)oc2ccc(F)cc12 [Compound 164, 3-[(1S)-1-(5-fluoro-3-methyl-1-benzofuran-2-yl)-2-methylpropyl]-1-(2-{1-oxa-6-azaspiro[3.3]heptan-6-yl}pyrimidin-5-yl)urea]
< 1000 nM	Cc1c([C@@H](NC(=O)Nc2cnc(N3CCNC(=O)C3)nc2)C(C)C)oc2ccc(F)cc12 [Compound 139]
< 1000 nM	Cc1c([C@@H](NC(=O)Nc2cnc(N3CC(C)(O)C3)nc2)C(F)(F)F)oc2ccc(F)cc12 [Compound 98, (R)-1-(2-(3-hydroxy-3-methylazetidin-1-yl)pyrimidin-5-yl)-3-(2,2,2-trifluoro-1-(5-fluoro-3-methylbenzofuran-2-yl)ethyl)urea]

Same assay, conditions: read-out: T47D pAKT IC50; T47D.1 cells, pAKT (S473) HTRF, 1 hour

IC50	Compound
< 1000 nM	Cc1c([C@@H](NC(=O)Nc2cnc(NCC(C)(C)O)nc2)C(F)(F)F)oc2c(F)cc(F)cc12 [Compound 183]
> 5000 nM	C[C@@H]1[C@@H](O)CN1c1ncc(NC(=O)NC(c2cc3cc(F)cc(F)c3o2)C(F)(F)F)cn1 (stereo partly drawn) [Compound 173, 3-[1-(5,7-difluoro-1-benzofuran-2-yl)-2,2,2-trifluoroethyl]-1-{2-[(2R,3S)-3-hydroxy-2-methylazetidin-1-yl]pyrimidin-5-yl}urea]
< 1000 nM	Cc1c(C(NC(=O)Nc2cnc(N)nc2)C(F)(F)F)oc2c(Cl)cc(F)cc12 (racemic) [Compound 178, 1-(2-aminopyrimidin-5-yl)-3-[1-(7-chloro-5-fluoro-3-methyl-1-benzofuran-2-yl)-2,2,2-trifluoroethyl] urea]
< 1000 nM	Cc1c(C(NC(=O)Nc2cnc(N3C[C@@H](O)[C@@H]3C)nc2)C(F)(F)F)oc2c(F)cc(F)cc12 (stereo partly shown) [Compound 175]
< 1000 nM	Cc1c(C(NC(=O)Nc2ccc(N3CC(O)C3)nc2)C(F)(F)F)oc2c(F)cc(F)cc12 (racemic) [Compound 180, 3-[1-(5,7-difluoro-3-methyl-1-benzofuran-2-yl)-2,2,2-trifluoroethyl]-1-[6-(3-hydroxyazetidin-1-yl)pyridin-3-yl]urea]
> 5000 nM	Cc1c(C(NC(=O)Nc2cnc(N3C[C@@H](O)[C@@H]3C)nc2)C(F)(F)F)oc2c(F)cc(F)cc12 (stereo partly shown) [Compound 176]
> 5000 nM	Cc1c(C(NC(=O)Nc2ccc(N3CC(O)C3)nc2)C(F)(F)F)oc2c(F)cc(F)cc12 (racemic) [Compound 179, 3-[1-(5,7-difluoro-3-methyl-1-benzofuran-2-yl)-2,2,2-trifluoroethyl]-1-[6-(3-hydroxyazetidin-1-yl)pyridin-3-yl]urea]
< 1000 nM	Cc1c(C(NC(=O)Nc2cnc(N3CC4(COC4)C3)nc2)C(F)(F)F)oc2c(F)cc(F)cc12 (racemic) [Compound 172, 1-(2-(2-oxa-6-azaspiro[3.3]heptan-6-yl)pyrimidin-5-yl)-3-(1-(5,7-difluoro-3-methylbenzofuran-2-yl)-2,2,2-trifluoroethyl)urea]
< 1000 nM	Cc1c(C(NC(=O)Nc2cnc(N3CC(O)C3)nc2)C(F)(F)F)oc2c(F)cc(Cl)cc12 (racemic) [Compound 157, 3-[1-(5-chloro-7-fluoro-3-methyl-1-benzofuran-2-yl)-2,2,2-trifluoroethyl]-1-[2-(3-hydroxyazetidin-1-yl)pyrimidin-5-yl]urea]
< 1000 nM	Cc1c(C(NC(=O)Nc2cnc(N[C@H](C)CO)nc2)C(F)(F)F)oc2c(F)cc(F)cc12 (single isomer, unassigned) [Compound 188]
< 1000 nM	C[C@@H]1[C@@H](O)CN1c1ncc(NC(=O)NC(c2cc3cc(F)cc(F)c3o2)C(F)(F)F)cn1 (stereo partly drawn) [Compound 174, 3-[1-(5,7-difluoro-1-benzofuran-2-yl)-2,2,2-trifluoroethyl]-1-{2-[(2R,3S)-3-hydroxy-2-methylazetidin-1-yl]pyrimidin-5-yl}urea]
< 1000 nM	Cc1c(C(NC(=O)Nc2cnc(N3CC(C)(O)C3)nc2)C(F)(F)F)oc2c(Cl)cc(F)cc12 (single isomer, unassigned) [Compound 202, 1-(1-(7-chloro-5-fluoro-3-methylbenzofuran-2-yl)-2,2,2-trifluoroethyl)-3-(2-(3-hydroxy-3-methylazetidin-1-yl)pyrimidin-5-yl)urea]
> 5000 nM	Cc1c(C(NC(=O)Nc2cnc(N)nc2)C(F)(F)F)oc2c(Cl)cc(F)cc12 (racemic) [Compound 177, 1-(2-aminopyrimidin-5-yl)-3-[1-(7-chloro-5-fluoro-3-methyl-1-benzofuran-2-yl)-2,2,2-trifluoroethyl] urea]
> 5000 nM	Cc1c(C(NC(=O)Nc2cnc(N3CC(C(=O)O)C3)nc2)C(F)(F)F)oc2c(F)cc(F)cc12 (single isomer, unassigned) [Compound 198, 1-[5-({[1-(5,7-difluoro-3-methyl-1-benzofuran-2-yl)-2,2,2-trifluoroethyl]carbamoyl}amino)pyrimidin-2-yl]azetidine-3-carboxylic acid]
